According to ChEMBL document CHEMBL3044614, “Synthesis and pharmacological evaluation of m-terphenyl amines as cyclooxygenase inhibitors” (Med Chem Res, 2007):
Activity calls are given as the source filed them. The rule behind the calls is not given here.

What was measured:
[1] = molecular target: T1, Prostaglandin G/H synthase 2 (Homo sapiens) (UniProt P35354); test: Inhibition of cyclooxygenase-2 in Homo sapiens (human) whole blood assessed as LPS-induced PGE2 production at 100 uM incubated 15 min prior to LPS challenge measured after 24 hr by enzyme immunoassay
T1 sequence (whole entry): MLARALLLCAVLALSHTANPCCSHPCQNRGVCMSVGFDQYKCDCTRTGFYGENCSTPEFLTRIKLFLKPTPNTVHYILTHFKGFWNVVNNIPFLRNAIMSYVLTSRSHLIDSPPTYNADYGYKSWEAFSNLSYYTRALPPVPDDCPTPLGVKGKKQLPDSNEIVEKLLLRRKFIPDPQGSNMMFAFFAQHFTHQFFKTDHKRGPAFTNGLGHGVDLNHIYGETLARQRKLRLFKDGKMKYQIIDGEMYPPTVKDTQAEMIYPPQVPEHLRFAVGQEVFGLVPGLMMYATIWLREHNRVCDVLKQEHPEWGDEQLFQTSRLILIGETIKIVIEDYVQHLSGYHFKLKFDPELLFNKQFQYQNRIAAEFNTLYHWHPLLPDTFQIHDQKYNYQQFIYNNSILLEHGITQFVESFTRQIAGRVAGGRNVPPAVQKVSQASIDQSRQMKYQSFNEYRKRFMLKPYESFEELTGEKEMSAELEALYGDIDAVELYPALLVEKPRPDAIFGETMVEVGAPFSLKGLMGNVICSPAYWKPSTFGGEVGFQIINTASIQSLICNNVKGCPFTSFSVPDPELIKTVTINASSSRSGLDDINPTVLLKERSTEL

[2] = molecular target: T1, Prostaglandin G/H synthase 2 (Homo sapiens); test: Inhibition of cyclooxygenase-2 in Homo sapiens (human) whole blood assessed as LPS-induced PGE2 production at 10 uM incubated 15 min prior to LPS challenge measured after 24 hr by enzyme immunoassay
[3] = molecular target: T2, Prostaglandin G/H synthase 1 (Homo sapiens, UniProt P23219); test: Inhibition of cyclooxygenase-1 in Homo sapiens (human) whole blood assessed as thromboxane B2 production at 100 uM after 1 hr by enzyme immunoassay
T2 sequence (P23219 whole entry): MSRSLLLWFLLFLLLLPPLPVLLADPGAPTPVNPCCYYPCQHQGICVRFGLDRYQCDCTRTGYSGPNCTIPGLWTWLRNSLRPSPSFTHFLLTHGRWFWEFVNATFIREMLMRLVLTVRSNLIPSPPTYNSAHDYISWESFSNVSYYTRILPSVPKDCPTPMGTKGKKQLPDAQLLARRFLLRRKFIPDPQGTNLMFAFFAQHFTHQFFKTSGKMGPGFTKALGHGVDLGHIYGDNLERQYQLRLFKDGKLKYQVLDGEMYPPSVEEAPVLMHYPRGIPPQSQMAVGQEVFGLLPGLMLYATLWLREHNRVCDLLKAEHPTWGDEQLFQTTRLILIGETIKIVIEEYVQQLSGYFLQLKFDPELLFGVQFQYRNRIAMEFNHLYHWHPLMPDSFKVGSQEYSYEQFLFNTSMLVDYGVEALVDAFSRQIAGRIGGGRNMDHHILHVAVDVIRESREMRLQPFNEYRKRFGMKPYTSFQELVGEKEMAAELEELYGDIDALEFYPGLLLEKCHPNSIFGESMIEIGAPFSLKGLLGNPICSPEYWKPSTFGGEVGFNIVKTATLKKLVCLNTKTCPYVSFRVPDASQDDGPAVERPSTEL

[4] = molecular target: T2, Prostaglandin G/H synthase 1; test: Inhibition of cyclooxygenase-1 in Homo sapiens (human) whole blood assessed as thromboxane B2 production at 10 uM after 1 hr by enzyme immunoassay
[5] = molecular target: T3, Prostaglandin G/H synthase 2 (Homo sapiens, UniProt P35354); test: Inhibition of Homo sapiens (human) cyclooxygenase-2
T3 sequence (P35354 whole entry): T1 sequence (whole entry)

[6] = molecular target: T2, Prostaglandin G/H synthase 1; test: Inhibition of COX-1 (unknown origin)

inhibition [1] | inhibition [2] | inhibition [3] | inhibition [4] | IC50 [5] | IC50 [6] | SMILES
inactive | inactive | 88% | 20% | – | – | CCOc1ccc(-c2cc(N)cc(-c3ccccc3)c2)cc1
78% | inactive | 92% | inactive | – | – | COc1ccc(-c2cc(N)cc(-c3ccccc3)c2)cc1
inactive | inactive | 92% | 29% | – | – | CSc1ccc(-c2cc(N)cc(-c3ccccc3)c2)cc1
98% | 85% | 97% | 63% | – | – | Nc1cc(-c2ccccc2)cc(-c2ccc(Cl)cc2)c1
95% | 49% | 96% | 46% | – | – | Cc1ccc(-c2cc(N)cc(-c3ccccc3)c2)cc1

More lines, now with the values behind:

SMILES | inhibition [1] | inhibition [2] | inhibition [3] | inhibition [4] | IC50 [5] | IC50 [6]
Nc1cc(-c2ccc(Cl)cc2)cc(-c2ccc(Cl)cc2)c1 | 99% | 76% | 93% | 19% | – | –
CS(=O)(=O)c1ccc(-c2cc(N)cc(-c3ccccc3)c2)cc1 | inactive | inactive | 85% | 23% | – | –
Cc1c(CC(=O)O)cc(-c2ccccc2)cc1-c1ccccc1 | – | – | – | – | 120 µM | 17 µM
CCOc1ccc(-c2cc(N)cc(-c3ccc(OCC)cc3)c2)cc1 | inactive | inactive | inactive | inactive | – | –
Cc1ccc(-c2cc(N)cc(-c3ccc(C)cc3)c2)cc1 | 86% | 57% | 87% | 27% | – | –
Nc1cc(-c2ccccc2)cc(-c2ccccc2)c1 | 92% | 68% | 98% | 56% | – | –
